# Entries after “also recorded” stand apart in the source; their conditions may differ.
# How the values were obtained:
# UGT1A9 = target: T1, UGT1A9 (Homo sapiens, UniProt O60656); assay: Glucuronidation by recombinant human UGT1A9
# T1 sequence (O60656 26-530): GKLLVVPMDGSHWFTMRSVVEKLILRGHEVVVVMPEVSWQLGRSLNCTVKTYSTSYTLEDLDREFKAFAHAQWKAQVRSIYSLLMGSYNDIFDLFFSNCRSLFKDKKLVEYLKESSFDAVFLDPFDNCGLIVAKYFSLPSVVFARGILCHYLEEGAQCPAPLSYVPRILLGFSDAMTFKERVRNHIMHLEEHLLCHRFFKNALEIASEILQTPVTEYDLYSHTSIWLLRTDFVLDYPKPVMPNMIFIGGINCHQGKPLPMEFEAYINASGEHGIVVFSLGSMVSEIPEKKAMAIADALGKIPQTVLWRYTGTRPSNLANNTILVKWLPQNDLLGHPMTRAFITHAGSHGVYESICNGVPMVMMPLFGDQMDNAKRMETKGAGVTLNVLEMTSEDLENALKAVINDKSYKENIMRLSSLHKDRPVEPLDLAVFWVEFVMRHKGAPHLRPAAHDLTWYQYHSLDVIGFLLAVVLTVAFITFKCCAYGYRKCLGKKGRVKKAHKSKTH
# UGT1A3 = target: T2, UGT1A3 (Homo sapiens, UniProt P35503); assay: Glucuronidation by recombinant human UGT1A3
# T2 sequence (P35503 29-534): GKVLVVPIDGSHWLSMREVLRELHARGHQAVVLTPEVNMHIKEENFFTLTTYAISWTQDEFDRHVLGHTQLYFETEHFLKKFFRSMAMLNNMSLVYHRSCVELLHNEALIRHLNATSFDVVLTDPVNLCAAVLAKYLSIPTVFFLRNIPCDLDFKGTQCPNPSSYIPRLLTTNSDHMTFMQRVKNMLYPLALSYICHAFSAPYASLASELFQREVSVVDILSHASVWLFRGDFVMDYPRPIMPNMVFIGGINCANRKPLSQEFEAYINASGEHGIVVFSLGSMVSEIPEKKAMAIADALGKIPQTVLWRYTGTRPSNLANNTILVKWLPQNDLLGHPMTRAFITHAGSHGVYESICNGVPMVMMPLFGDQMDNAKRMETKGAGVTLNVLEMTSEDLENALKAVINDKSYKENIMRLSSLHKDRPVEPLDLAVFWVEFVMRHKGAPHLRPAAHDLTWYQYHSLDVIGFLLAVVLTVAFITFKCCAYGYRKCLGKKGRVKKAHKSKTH
# UGT1A1 = target: T3, UGT1A1 (Homo sapiens, UniProt P22309); assay: Glucuronidation by recombinant human UGT1A1
# T3 sequence (P22309 26-533): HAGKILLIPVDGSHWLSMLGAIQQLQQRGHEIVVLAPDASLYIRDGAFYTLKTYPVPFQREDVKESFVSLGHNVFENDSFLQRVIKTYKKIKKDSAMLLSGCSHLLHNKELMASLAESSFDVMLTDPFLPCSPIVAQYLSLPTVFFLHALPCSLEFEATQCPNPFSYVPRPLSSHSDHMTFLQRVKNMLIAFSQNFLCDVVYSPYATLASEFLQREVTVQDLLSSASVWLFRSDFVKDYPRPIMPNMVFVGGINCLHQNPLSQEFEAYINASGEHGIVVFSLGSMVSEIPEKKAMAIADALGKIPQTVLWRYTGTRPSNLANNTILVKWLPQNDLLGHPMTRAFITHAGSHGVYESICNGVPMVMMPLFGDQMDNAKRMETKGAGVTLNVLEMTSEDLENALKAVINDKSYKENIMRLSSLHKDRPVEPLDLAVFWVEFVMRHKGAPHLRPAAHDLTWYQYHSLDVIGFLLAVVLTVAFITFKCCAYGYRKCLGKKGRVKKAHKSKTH
# [1] = test system: UGT 1A1, 1A3, 1A6, 1A7, 1A8, 1A9, 1A10 and 2B7; assay: Glucuronidation by the panel of 8 recombinant human UGT isoforms; conditions: substrate 10 μM
Structure (SMILES),"Degree of regiospecificity (major glucuronide in bracket) (UGT1A9; UGT1A9, substrate 2.5 μM)","Degree of regiospecificity (major glucuronide in bracket) (UGT1A9; UGT1A9, substrate 10 μM)","Degree of regiospecificity (major glucuronide in bracket) (UGT1A3; UGT1A3, substrate 2.5 μM)","Degree of regiospecificity (major glucuronide in bracket) (UGT1A3; UGT1A3, substrate 10 μM)","Degree of regiospecificity (major glucuronide in bracket) (UGT1A3; UGT1A3, substrate 10 μM, listed as 4’HFnol)","Degree of regiospecificity (major glucuronide in bracket) (UGT1A1; UGT1A1, substrate 2.5 μM)","Degree of regiospecificity (major glucuronide in bracket) (UGT1A1; UGT1A1, substrate 2.5 μM, listed as 4’HFnol)","Degree of regiospecificity (major glucuronide in bracket) (UGT1A1; UGT1A1, substrate 10 μM)","Degree of regiospecificity (major glucuronide in bracket) (UGT1A1; UGT1A1, substrate 10 μM, listed as 4’HFnol)",Glucuronidation and regiospecificity across the 8 UGT isoforms [1],"Degree of regiospecificity (major glucuronide in bracket) (UGT1A9; UGT1A9, substrate 10 μM, listed as 5,4’DHF)","Degree of regiospecificity (major glucuronide in bracket) (UGT1A3; UGT1A3, substrate 10 μM, listed as 5,4’DHF)","Degree of regiospecificity (major glucuronide in bracket) (UGT1A1; UGT1A1, substrate 2.5 μM, listed as 5,4’DHF)","Degree of regiospecificity (major glucuronide in bracket) (UGT1A1; UGT1A1, substrate 10 μM, listed as 5,4’DHF)","Degree of regiospecificity (major glucuronide in bracket) (UGT1A9; UGT1A9, substrate 10 μM, listed as 5,7THFnol)","Degree of regiospecificity (major glucuronide in bracket) (UGT1A9; UGT1A9, substrate 10 μM, listed as 7,4’DHF)","Degree of regiospecificity (major glucuronide in bracket) (UGT1A3; UGT1A3, substrate 10 μM, listed as 7,4’DHF)","Degree of regiospecificity (major glucuronide in bracket) (UGT1A1; UGT1A1, substrate 2.5 μM, listed as 7,4’DHF)","Degree of regiospecificity (major glucuronide in bracket) (UGT1A1; UGT1A1, substrate 10 μM, listed as 7,4’DHF)"
"O=c1c(O)c(-c2ccc(O)cc2)oc2ccccc12 [4'HFnol, 3,4’-dihydroxyflavone]",Dominant (3-O),Dominant (3-O),Dominant (3-O),"No (3-O, 4’-O)",no regiospecificity,"No (3-O, 4’-O)",did not show any regiospecific preference,"No (3-O, 4’-O)",no regiospecificity; also recorded: did not show any regiospecific preference,most isoforms showed dominant regiospecificity by glucuronidating almost only the 3-O position,–,–,–,–,–,–,–,–,–
"O=c1cc(-c2ccc(O)cc2)oc2cccc(O)c12 [5,4'DHF, 5,4’-dihydroxyflavone]",Dominant (4’-O),Dominant (4’-O),Dominant (4’-O),Moderate (4’-O),–,Dominant (4’-O),–,Dominant (4’-O),–,4’-O was the preferred position of glucuronidation in all cases,dominant regiospecificity,moderate regiospecificity for 4’-O position,dominant regiospecificity,dominant regiospecificity,–,–,–,–,–
"O=c1c(O)c(-c2ccccc2)oc2cc(O)cc(O)c12 [5,7DHFnol, 3,5,7-trihydroxyflavone]",Weak (3-O),"did not show any regiospecific preference for any position; also recorded: No (3-O, 7-O)",Dominant (7-O),dominantly regiospecific for 7-O; also recorded: Dominant (7-O),–,Weak (7-O),–,weakly preferred the glucuronidation of 7-O over 3-O position; also recorded: Weak (7-O),–,–,–,–,–,–,3-O and 7-O were glucuronidated at comparable rates,–,–,–,–
"O=c1cc(-c2ccc(O)cc2)oc2cc(O)ccc12 [7,4'DHF, 7,4’-dihydroxyflavone]",Moderate (7-O),Moderate (7-O),Dominant (7-O),Dominant (7-O),–,Weak (7-O),–,Moderate (7-O),–,"except UGT1A6, all metabolizing isoforms glucuronidated both hydroxyl groups at C-7 and C-4’ positions",–,–,–,–,–,moderate regiospecificity for glucuronidation of 7-O position,dominant regiospecificity for glucuronidation of 7-O position,weak,moderate regiospecificity for glucuronidation of 7-O position
"O=c1c(O)c(-c2ccccc2)oc2ccccc12 [Fnol, 3-hydroxyflavone]",–,–,–,–,–,–,–,–,–,could be metabolized by any of the 8 UGT isoforms tested,–,–,–,–,–,–,–,–,–

# — PMC3391414 (Journal of Agricultural and Food Chemistry, 2011)
